Laboratory results: US20110117055A1, “Methods of Treating Hepatitis C Virus with Oxoacetamide Compounds” (priority 2009, published 2011)
“Also recorded” adds a separate entry of the source. Where two headings read alike, the source gives them in different places.

Columns and labels:
[1] = tested on: Jc1-luc virus; test: Luciferase compound activity assay, Jc1-luc virus in Huh7.5.1 cells; type: cell-based, HCV genotype-2a; settings: Hepatitis C virus, Huh-7.5.1
Method: Cell culture. Human hepatoma Huh-7.5.1 cells or Huh7 cells were grown at 37° C. and 5% CO2 in Dulbecco's modification of Eagle's medium supplemented with 2 mM L-glutamine, 1 mM Sodium pyruvate, 1× Non-essential amino acids mix, 100 units/ml penicillin, 100 μg/ml streptomycin, and 10% fetal bovine serum.
Virus plasmids. The chimeric full-length construct pFL-JC1, a GT2a/2a chimera consisting of structural genes from the J6CF isolate and non-structural genes from the JFH1 isolate, has been described previously. See Backes et al., J. Virol. 2010, 84:5775-89; Schaller et al., J. Virol., 2007, 81:4591-603; Koutsoudakis et al., J. Virol. 2006, 80:5308-20; Pietschmann et al., Proc. Natl. Acad. Sci., 2006, 103:7408-13. The firefly luciferase gene has been inserted to pFL-Jc1 to develop a plamid pFL-Jc1-luc for use as a reporter of viral replication. See Amako et al., J. Virol. 2009, 83:9237-46. Specifically, the pFL-JC1-luc construct can be utilized to develop an infectious HCV cell culture system to test novel HCV inhibitors, including entry inhibitors, in vitro using luciferase expression.
Preparation of infectious HCV. Jc1-luc or HCV2a/2aChRluc RNA was in vitro transcribed using T7 RiboMAX™ Express Large Scale RNA Production System (Promega). After RNA clean up (Qiagen RNeasy Mini kit), transfection was performed as previously described.
400 microliters of a Huh-7.5.1 or Huh7 cell suspension (10^7 cells/ml) was placed in a 0.4-cm cuvette with 10 μg of Jc1-luc or HCV2a/2aChRluc RNA and electroporated (Bio-Rad Gene Pulser System) using a single square wave at 260 V and 25 ms pulse length. The cells were plated in 15-cm tissue culture dishes (Corning) and supernatant was harvested and concentrated using a centrifugal filter (Amicon 100K, Millipore).
Luciferase compound activity assay. Cell culture and luciferase compound assays were performed as previously described. See Wyles et al., J. Virol. 2007, 81:3005-8; Wyles et al., Antimicrob Agents Chemother. 2009, 53:2660-2; Grünberger et al., J. Infect. Dis. 2008, 197:42-5; Wyles et al., Antimicrob Agents Chemother, 2008, 52:1862-4. Briefly, Huh7.5.1 cells were seeded into 96-well plates at a density of 10,000 cells per well in 100 μl medium. After incubating overnight for attachment, Jc1-luc virus at an MOI 0.01 was added to wells with or without compounds at the specified concentrations. All conditions were run in triplicate. After 24 hours, medium was aspirated and replaced with 100 μl of complete medium containing an identical concentration of compound(s) followed by additional 48 hour incubation. The luciferase assay (Bright-Glo; Promega) was carried out according to the manufacturer's instructions. Luciferase activity was determined using a microplate luminometer (Veritas microplate luminometer; Turner Biosystems). […]

[2] = Cytotoxicity of anti-HCV compounds (CC50, Table 4); settings: human, Huh7.5.1 cells
[3] = tested on: HCV2aChLuc virus; test: In vitro HCVcc entry assay: HCV2aChLuc virus infection of Huh7 cells, Renilla luciferase read-out; type: cell-based, HCV genotype 2a; settings: for IC50: Hepatitis C virus
[4] = tested on: HCV genotype 1b subgenomic replicon; test: HCV replicon assay (HCV1b replicon cells, NS5A ELISA); type: cell-based; settings: 3 days
Method: Alternatively, Hut1b cells (Huh7 cells stably replicating HCV genotype 1b subgenomic replicon) were treated with serial dilutions of the test compound for 72 hours. Replication efficiency was monitored by ELISA assay using anti-HCV NS5A monoclonal antibody (Virogen).
Increasing amounts of compound were inoculated onto HCV1b replicon cells and incubated for 3 days. Following incubation, HCV replication was monitored with NS5A protein expression by ELISA.

[5] = tested on: Bovine viral diarrhea virus (BVDV); test: BVDV plaque-forming assay in MDBK cells; type: cell-based; settings: even at 1 μM
Method: Bovine viral diarrhea virus (BVDV) is a closely related virus to HCV, belonging to the same Family, Flaviviridae. To validate the specificity of antiviral activity, BVDV infection was done with MDBK cells in the presence of compounds provided herein. MDBK cells (70 to 80% confluent) were infected with a diluted virus. Following 1 h of adsorption at 37° C., cells were washed once with DMEM, overlaid with 1.5% low-melting-point (LMP) agarose (Gibco-BRL) in MEM containing 5% HS, and incubated at 37° C. To assay for plaque-forming virus, after 3 days monolayers were fixed with 3.7% formaldehyde for 2 h at room temperature, the agarose plugs were removed, and the monolayers were stained with crystal violet.

[6] = tested on: HCV1a/2a chimeric virus; test: HCV entry assay with HCV1a/2a chimeric virus; type: cell-based, HCV genotype 1a
Text: Since HCV genotype 1 is the most prevalent genotype among the variants of HCV, we constructed an HCV1a/2a chimeric infectious clone with two cell-culture adaptive mutations introduced. Sequences for the structural proteins (including C, E1, and E2), p7, and NS2 were derived from HCV genotype 1a H77 strain. The rest of nonstructural proteins (NS3 to NS5B) and 3′ NTR were derived from HCV genotype 2a JFH strain. 5′NTR was originated from HCV2aJ6 (FIG. 7). […] Therefore, both HCV1a/2aCh virus and HCV1a/2aChLuc virus with Y361H and Q1251L mutations were successively produced in Huh7 cells and used for HCV entry assay.

[7] = tested on: HCV; test: Combination of viral entry inhibitor with IFN-α, HCVcc infection system, luciferase assay; type: cell-based; settings: Huh7 cells, 72 hrs
Method: The current standard of care for the treatment of chronic hepatitis C is the combination of pegylated IFN-α (interferon-alpha) and ribavirin. […] Huh7 cells were incubated with various concentrations of Compound 1 or interferon alone, or combinations of both for 72 hrs, and the anti-HCV activity was measured by luciferase assays. The same was experiment was performed for Compound 5.

[8] = tested on: HCV1a chimeric virus and 2a chimeric virus; test: Combination of viral entry inhibitor with ribavirin; type: cell-based, HCV; settings: ribavirin 15 μM
Method: Varying amounts of each compound were coincubated with a high concentration of ribavirin (15 μM).

[9] = tested on: HCV; test: Combination of viral entry inhibitor with HCV protease inhibitor VX-950; type: cell-based; settings: fixed ratio based on EC50
Method: Additional combination studies of Compound 1 and Compound 5 with the HCV NS3 protease inhibitor VX-950 were conducted. Compound 1 and Compound 5 were tested singly and in combination with VX-950. The ratio of the two compounds, based on the compound's EC50, remained fixed across the dosing range. The potential cytotoxicity of individual compounds was assessed with a luminescent ATP-based cell viability assay (Cell Titer-Glo; Promega). Cell culture and luciferase compound assays were performed as previously described in Example 3.
Compound interactions were quantified by the approach described by Chou and Talalay, relying on the median effect principle and the multiple-drug effect equation. […] Isobolograms were generated for each combination tested and were used to determine the additivity, synergism or antagonism of inhibitor combinations. Combination indices (CI) were determined with Calcusyn (Biosoft) for each experiment at the EC50, EC75, and EC90 of the combination. By convention, a CI of <0.9 was considered synergistic, a CI of ≧0.9 or ≦1.1 was considered additive, and a CI of >1.1 was deemed antagonistic. […] Combination indices (CI) were determined with Calcusyn (Biosoft) for each experiment at the EC50, EC75, and EC90 of the combination. By convention, a CI of <0.9 was considered synergistic, a CI of ≧0.9 or ≦1.1 was considered additive, and a CI of >1.1 was deemed antagonistic.

[10] = tested on: HCV2aChLuc (NS3:A156S); test: Infectivity of protease mutant virus versus wild type in the presence of compounds; type: cell-based, HCV genotype 2a; settings: HCV2aChLuc (NS3:A156S) vs wild type HCV2aChLuc
Text: Therefore, we introduced A156S mutation in the backbone of HCV2aChLuc genome and investigated the infectivity of the mutant virus in the presence of compounds.

[11] = tested on: HCV2aCh (E2:G451R) mutant virus; test: E2:G451R mutant virus infectivity, luciferase assay; type: cell-based, HCV genotype 2a; settings: E2:G451R vs parental
Text: Since SR-B1 is also known to be one of the essential cellular receptors required for HCV entry, we were interested to know if Compounds 1 and 5 inhibits HCV entry via SR-B1. HCV E2 protein interaction with SR-B1 is believed to occur via hypervariable region 1 located within the N-terminal region of the E2 glycoprotein. Zhong and colleagues reported that a glycine-to-arginine mutation at position 451 (G451R) in E2 promoted JFH-1 infectivity (J. Viol. 2006, 80:11082). […] We introduced the E2:G451R mutation into the backbone of HCV2aCh (FIG. 13a) to test whether this mutation may alter the inhibitory effect of Compounds 1 and 5 on HCV entry mediated by SR-B1.

[12] = tested on: HCV2a/2aChRluc virus; test: Compound 5 with ribavirin or VX950 in the HCV2a/2aChRluc system; type: cell-based, HCV genotype 2a; settings: ribavirin alone, 15 μM
Method: 100 μl of serially diluted compound solutions (100, 30, 10, 3, 1, 0.3, and 0.1 nM) was inoculated onto Huh-7 cells in a 96-well plate. Subsequently, 100 ul (TCID50, ˜0.6) of HCV2a/2aChRluc virus was added onto the cells. After co-incubation for 72 hrs, Renilla luciferase expression was determined (Renilla Luciferase Assay, Promega) and reported as relative light units (RLU).
Data analysis. Determinations of compound interactions were quantified based on the median-effect principle described by Chou and Talalay. Chou T., Talalay P., Adv. Enzyme. Regul., 1984, 22:27-55. Combination indices (CIs) were determined using Calcusyn (Biosoft) for each experiment at the EC50, EC75, and EC90 levels. Five replicates per condition were evaluated. A CI<0.9 was considered synergistic, a CI≧0.9 and ≦[…] was considered additive, and a CI>1.1 was deemed antagonistic.

[13] = Huh-7, read-out: Activity class (IC50), tested according to the method of Example 3

SMILES: C[C@@]1(O)[C@H](O)[C@@H](CO)O[C@H]1n1cnc2c(N)ncnc21 [2′-C-methyladenosine, reference compound]
- EC50 [1]: 252 ± 33.5 nM
- CC50 [2]: > 100000 nM

SMILES: COc1ccc2c(O[C@@H]3C[C@H]4C(=O)N[C@]5(C(=O)O)C[C@H]5/C=C\CCCCC[C@H](NC(=O)OC5CCCC5)C(=O)N4C3)cc(-c3csc(NC(C)C)n3)nc2c1 [BILN2061, reference compound]
- EC50 [1]: 492 ± 56.7 nM
- CC50 [2]: 35000 nM

SMILES: COc1ccc(C(C)(C)C)cc1NC(=O)C(=O)c1ccc(OCCN2CCOCC2)c2ccccc12 [Compound 1, N-(5-tert-butyl-2-methoxyphenyl)-2-(4-(2-morpholinoethoxy)naphthalen-1-yl)-2-oxoacetamide]
- IC50 ([3]; Huh-7, 72 h, read-out: observed IC50, Huh7 cells co-incubated with HCV2aChRluc virus and compound for 3 days, repeated assays (n>30)): 0.2 to 2 nM
- IC50 [3, 13]: < 5 nM
- inhibitory effect on HCV2aChLuc viral entry ([3]; Huh7 cells, 3 days): dose-dependent inhibitory effect; also recorded: dose-dependent inhibition
- effect on HCV replication (NS5A protein expression by ELISA) [4]: did not measurably inhibit; also recorded: no measurable effect
- inhibitory effect on BVDV infection [5]: no measurable inhibitory effect
- inhibition of HCV1a chimeric virus ([6]; compared with HCV2a chimeric virus): inhibited
- effect of combination with IFN-α on inhibition of HCV infection in cell culture [7]: additive to moderate synergistic effect
- effect of combination with ribavirin [8]: no antagonistic effect
- effect of combination with VX-950 [9]: additive to slightly synergistic effects
- resistance of NS3:A156S mutant virus versus wild type (inhibition of infectivity) [10]: no significant difference
- sensitivity of E2 mutant virus relative to parental virus, luciferase assay for viral infectivity [11]: greater resistance

SMILES: COc1ccc(C(C)(C)C)cc1NC(=O)C(=O)c1ccc(-c2cccnc2)c2ccccc12 [Compound 127]
- IC50 [3, 13]: > 500 nM

SMILES: COc1c(NC(=O)C(=O)c2ccc(Br)c3ccccc23)cc(C(C)(C)C)cc1NS(C)(=O)=O [Compound 128]
- IC50 [3, 13]: > 500 nM

SMILES: CNc1ccc(-c2ccc(C(=O)C(=O)Nc3cc(C(C)(C)C)cc(C(=O)NC4CC4)c3OC)c3ccccc23)cn1 [Compound 130]
- IC50 [3, 13]: > 500 nM

SMILES: CNc1ccc(-c2ccc(C(=O)C(=O)Nc3cc(C(C)(C)C)cc(NS(C)(=O)=O)c3OC)c3ccccc23)cn1 [Compound 131]
- IC50 [3, 13]: > 500 nM

SMILES: COc1c(N)cc(C(C)(C)C)cc1NC(=O)C(=O)c1cccc2ccccc12 [Compound 132]
- IC50 [3, 13]: > 500 nM

SMILES: COc1ccc(C(C)(C)C)cc1NC(=O)C(=O)c1ccc(Br)c2ccccc12 [Compound 134]
- IC50 [3, 13]: 5 to 500 nM

SMILES: COc1c(NC(=O)C(=O)c2ccc(Br)c3ccccc23)cc(C(C)(C)C)cc1C(=O)NC1CC1 [Compound 135]
- IC50 [3, 13]: < 5 nM

SMILES: CNc1ccc(-c2ccc(C(=O)C(=O)Nc3cc(C(C)(C)C)ccc3OC)c3ccccc23)cn1 [Compound 136]
- IC50 [3, 13]: < 5 nM

SMILES: CNc1ccc(-c2ccc(C(=O)C(=O)Nc3cc(C(C)(C)C)cc(C(N)=O)c3OC)c3ccccc23)cn1 [Compound 137]
- IC50 [3, 13]: < 5 nM

SMILES: CCNC(=O)c1cc(C(C)(C)C)cc(NC(=O)C(=O)c2ccc(-c3ccc(NC)nc3)c3ccccc23)c1OC [Compound 138]
- IC50 [3, 13]: < 5 nM

SMILES: CCC[C@H](NC(=O)[C@@H]1[C@H]2CCC[C@H]2CN1C(=O)[C@@H](NC(=O)[C@@H](NC(=O)c1cnccn1)C1CCCCC1)C(C)(C)C)C(=O)C(=O)NC1CC1 [VX-950, reference compound]
- resistance of NS3:A156S mutant virus versus wild type (inhibition of infectivity) [10]: high level resistance; also recorded: resistant
- resistance of NS3:A156S mutant virus versus wild type (inhibition of infectivity) ([10]; listed as VX950): highly resistant

SMILES: NC(=O)c1ncn([C@@H]2O[C@H](CO)[C@@H](O)[C@H]2O)n1 [ribavirin, reference compound]
- inhibitory effect on infectivity of 2a chimeric virus ([3]; ribavirin alone, 15 μM): did not have significant inhibitory effect
- inhibitory effect on infectivity of HCV1a chimeric virus ([6]; ribavirin alone, 15 μM): did not have significant inhibitory effect
- inhibitory effect on the infectivity of 2a chimeric virus [12]: did not have significant inhibitory effect
